The record followed here is US20250333424A1, “ANTIVIRAL COMPOUNDS” (Gilead Sciences, Inc., priority 2024, published 2025).

What is called EC50 is the concentration that produces a half-maximal response. High values mean a less potent agent, low ones a more potent agent.

The subject of the assay is monocytic THP1 cells infected with HIV VSV-G pseudotyped GFP-NEF reporter virus. Kind of assay: cells. It counts as cell-based. The following applies: Human immunodeficiency virus 1, THP-1, 24 h.

SMILES strings stand for the structures.

`Cc1cc(/C=C/C#N)cc(C)c1Oc1nc(NC23CC(C#N)(C2)C3)nc2c1C(C)N(C1COC1)C2=O` (centres unmarked) [Example 208, (E)-3-((4-(4-(2-cyanovinyl)-2,6-dimethylphenoxy)-5-methyl-6-(oxetan-3-yl)-7-oxo-6,7-dihydro-5H-pyrrolo[3,4-d]pyrimidin-2-yl)amino)bicyclo[1.1.1]pentane-1-carbonitrile] displayed an EC50 of 28.8 nM.
As for `Cc1cc(/C=C/C#N)cc(C)c1Oc1nc(NC23CC(C#N)(C2)C3)nc2c1C(C)N(CCc1cn(C)cn1)C2=O` (centres unmarked) [Example 209, (E)-3-((4-(4-(2-cyanovinyl)-2,6-dimethylphenoxy)-5-methyl-6-(2-(1-methyl-1H-imidazol-4-yl)ethyl)-7-oxo-6,7-dihydro-5H-pyrrolo[3,4-d]pyrimidin-2-yl)amino)bicyclo[1.1.1]pentane-1-carbonitrile], the EC50 was 57.7 nM.
For `Cc1cc(/C=C/C#N)cc(C)c1Oc1nc(NC23CC(C#N)(C2)C3)nc2c1C(C)N(CC1CC1)C2=O` (centres unmarked) [Example 210, (E)-3-((4-(4-(2-cyanovinyl)-2,6-dimethylphenoxy)-6-(cyclopropylmethyl)-5-methyl-7-oxo-6,7-dihydro-5H-pyrrolo[3,4-d]pyrimidin-2-yl)amino)bicyclo[1.1.1]pentane-1-carbonitrile] the value was 125 nM.
With `Cc1cc(/C=C/C#N)cc(C)c1Oc1nc(NC23CC(C#N)(C2)C3)nc2c1C(C)N(CCc1cnn(C)c1)C2=O` (centres unmarked) [Example 211, (E)-3-((4-(4-(2-cyanovinyl)-2,6-dimethylphenoxy)-5-methyl-6-(2-(1-methyl-1H-pyrazol-4-yl)ethyl)-7-oxo-6,7-dihydro-5H-pyrrolo[3,4-d]pyrimidin-2-yl)amino)bicyclo[1.1.1]pentane-1-carbonitrile], it took 54.5 nM to reach a half-maximal effect (EC50).
For `Cc1cc(/C=C/C#N)cc(C)c1Oc1nc(NC23CC(C#N)(C2)C3)nc2c1C(C)N(Cc1ccnn1C)C2=O` (centres unmarked) [Example 212, (E)-3-((4-(4-(2-cyanovinyl)-2,6-dimethylphenoxy)-5-methyl-6-((1-methyl-1H-pyrazol-5-yl)methyl)-7-oxo-6,7-dihydro-5H-pyrrolo[3,4-d]pyrimidin-2-yl)amino)bicyclo[1.1.1]pentane-1-carbonitrile] the value was 47.1 nM.
Consider `Cc1cc(/C=C/C#N)cc(C)c1Oc1nc(NC23CC(C#N)(C2)C3)nc2c1C(C)N(Cc1nccn1C)C2=O` (centres unmarked) [Example 213, (E)-3-((4-(4-(2-cyanovinyl)-2,6-dimethylphenoxy)-5-methyl-6-((1-methyl-1H-imidazol-2-yl)methyl)-7-oxo-6,7-dihydro-5H-pyrrolo[3,4-d]pyrimidin-2-yl)amino)bicyclo[1.1.1]pentane-1-carbonitrile], for which the EC50 worked out at 43.9 nM.
For `Cc1cc(/C=C/C#N)cc(C)c1Oc1nc(NC23CC(C#N)(C2)C3)nc2c1C(C)N(CCN1CCOCC1)C2=O` (centres unmarked) [Example 214, (E)-3-((4-(4-(2-cyanovinyl)-2,6-dimethylphenoxy)-5-methyl-6-(2-morpholinoethyl)-7-oxo-6,7-dihydro-5H-pyrrolo[3,4-d]pyrimidin-2-yl)amino)bicyclo[1.1.1]pentane-1-carbonitrile] the value was 59.1 nM; for `Cc1cc(/C=C/C#N)cc(C)c1Oc1nc(NC23CC(C#N)(C2)C3)nc2c1C(C)N(C1CCOCC1)C2=O` (centres unmarked) [Example 215, (E)-3-((4-(4-(2-cyanovinyl)-2,6-dimethylphenoxy)-5-methyl-7-oxo-6-(tetrahydro-2H-pyran-4-yl)-6,7-dihydro-5H-pyrrolo[3,4-d]pyrimidin-2-yl)amino)bicyclo[1.1.1]pentane-1-carbonitrile], 109 nM.
For the molecule `Cc1cc(/C=C/C#N)cc(C)c1Oc1nc(NC23CC(C#N)(C2)C3)nc2c1C(C)N(C1CCC1)C2=O` (centres unmarked) [Example 216, (E)-3-((4-(4-(2-cyanovinyl)-2,6-dimethylphenoxy)-6-cyclobutyl-5-methyl-7-oxo-6,7-dihydro-5H-pyrrolo[3,4-d]pyrimidin-2-yl)amino)bicyclo[1.1.1]pentane-1-carbonitrile], a half-maximal effect (EC50) was put at 77.8 nM.
The molecule `Cc1cc(/C=C/C#N)cc(C)c1Oc1nc(NC23CC(C#N)(C2)C3)nc2c1C(C)N(c1cnn(C(F)(F)F)c1)C2=O` (centres unmarked) [Example 217, (E)-3-((4-(4-(2-cyanovinyl)-2,6-dimethylphenoxy)-5-methyl-7-oxo-6-(1-(trifluoromethyl)-1H-pyrazol-4-yl)-6,7-dihydro-5H-pyrrolo[3,4-d]pyrimidin-2-yl)amino)bicyclo[1.1.1]pentane-1-carbonitrile] had an EC50 of 157 nM.
The figure for `CCn1cc(N2C(=O)c3nc(NC45CC(C#N)(C4)C5)nc(Oc4c(C)cc(/C=C/C#N)cc4C)c3C2C)cn1` (centres unmarked) [Example 218, (E)-3-((4-(4-(2-cyanovinyl)-2,6-dimethylphenoxy)-6-(1-ethyl-1H-pyrazol-4-yl)-5-methyl-7-oxo-6,7-dihydro-5H-pyrrolo[3,4-d]pyrimidin-2-yl)amino)bicyclo[1.1.1]pentane-1-carbonitrile] is 47.3 nM.
As for `COCCn1cc(N2C(=O)c3nc(NC45CC(C#N)(C4)C5)nc(Oc4c(C)cc(/C=C/C#N)cc4C)c3C2C)cn1` (centres unmarked) [Example 219, (E)-3-((4-(4-(2-cyanovinyl)-2,6-dimethylphenoxy)-6-(1-(2-methoxyethyl)-1H-pyrazol-4-yl)-5-methyl-7-oxo-6,7-dihydro-5H-pyrrolo[3,4-d]pyrimidin-2-yl)amino)bicyclo[1.1.1]pentane-1-carbonitrile], a half-maximal response (EC50) required 40.7 nM.
`Cc1cc(/C=C/C#N)cc(C)c1Oc1nc(NC23CC(C#N)(C2)C3)nc2c1C(C)N(c1c(C)nn(C)c1C)C2=O` (centres unmarked) [Example 220, (E)-3-((4-(4-(2-cyanovinyl)-2,6-dimethylphenoxy)-5-methyl-7-oxo-6-(1,3,5-trimethyl-1H-pyrazol-4-yl)-6,7-dihydro-5H-pyrrolo[3,4-d]pyrimidin-2-yl)amino)bicyclo[1.1.1]pentane-1-carbonitrile] showed an EC50 of 155 nM.
In turn, `Cc1cc(/C=C/C#N)cc(C)c1Oc1nc(NC23CC(C#N)(C2)C3)nc2c1C(C)N(c1cnn(C)c1C)C2=O` (centres unmarked) [Example 221, (E)-3-((4-(4-(2-cyanovinyl)-2,6-dimethylphenoxy)-6-(1,5-dimethyl-1H-pyrazol-4-yl)-5-methyl-7-oxo-6,7-dihydro-5H-pyrrolo[3,4-d]pyrimidin-2-yl)amino)bicyclo[1.1.1]pentane-1-carbonitrile] displayed an EC50 of 72.9 nM.
The figure for `Cc1cc(/C=C/C#N)cc(C)c1Oc1nc(NC23CC(C#N)(C2)C3)nc2c1C(C)N(c1cn(C)nc1C)C2=O` (centres unmarked) [Example 222, (E)-3-((4-(4-(2-cyanovinyl)-2,6-dimethylphenoxy)-6-(1,3-dimethyl-1H-pyrazol-4-yl)-5-methyl-7-oxo-6,7-dihydro-5H-pyrrolo[3,4-d]pyrimidin-2-yl)amino)bicyclo[1.1.1]pentane-1-carbonitrile] is 70.7 nM; for `COCn1cc(N2C(=O)c3nc(NC45CC(C#N)(C4)C5)nc(Oc4c(C)cc(/C=C/C#N)cc4C)c3C2C)cn1` (centres unmarked) [Example 223, (E)-3-((4-(4-(2-cyanovinyl)-2,6-dimethylphenoxy)-6-(1-(methoxymethyl)-1H-pyrazol-4-yl)-5-methyl-7-oxo-6,7-dihydro-5H-pyrrolo[3,4-d]pyrimidin-2-yl)amino)bicyclo[1.1.1]pentane-1-carbonitrile] it is 38.3 nM; for `Cc1cc(/C=C/C#N)cc(C)c1Oc1nc(NC23CC(C#N)(C2)C3)nc2c1C(C)N(c1cnn(C3CC3)c1)C2=O` (centres unmarked) [Example 224, (E)-3-((4-(4-(2-cyanovinyl)-2,6-dimethylphenoxy)-6-(1-cyclopropyl-1H-pyrazol-4-yl)-5-methyl-7-oxo-6,7-dihydro-5H-pyrrolo[3,4-d]pyrimidin-2-yl)amino)bicyclo[1.1.1]pentane-1-carbonitrile] it is 51.1 nM.
On to `Cc1cc(/C=C/C#N)cc(C)c1Oc1nc(NC23CC(C#N)(C2)C3)nc2c1C(C)N(c1cnn3c1CCC3)C2=O` (centres unmarked) [Example 225, (E)-3-((4-(4-(2-cyanovinyl)-2,6-dimethylphenoxy)-6-(5,6-dihydro-4H-pyrrolo[1,2-b]pyrazol-3-yl)-5-methyl-7-oxo-6,7-dihydro-5H-pyrrolo[3,4-d]pyrimidin-2-yl)amino)bicyclo[1.1.1]pentane-1-carbonitrile], for which the EC50 amounted to 51.8 nM.
For `Cc1cc(/C=C/C#N)cc(C)c1Oc1nc(NC23CC(C#N)(C2)C3)nc2c1C(C)N(c1cnn(C(C)C)c1)C2=O` (centres unmarked) [Example 226, (E)-3-((4-(4-(2-cyanovinyl)-2,6-dimethylphenoxy)-6-(1-isopropyl-1H-pyrazol-4-yl)-5-methyl-7-oxo-6,7-dihydro-5H-pyrrolo[3,4-d]pyrimidin-2-yl)amino)bicyclo[1.1.1]pentane-1-carbonitrile] the value was 84.4 nM; for `Cc1cc(/C=C/C#N)cc(C)c1Oc1nc(NC23CC(C#N)(C2)C3)nc2c1C(C)N(c1cnn(C3CCC3)c1)C2=O` (centres unmarked) [Example 227, (E)-3-((4-(4-(2-cyanovinyl)-2,6-dimethylphenoxy)-6-(1-cyclobutyl-1H-pyrazol-4-yl)-5-methyl-7-oxo-6,7-dihydro-5H-pyrrolo[3,4-d]pyrimidin-2-yl)amino)bicyclo[1.1.1]pentane-1-carbonitrile], 115 nM; for `Cc1cc(/C=C/C#N)cc(C)c1Oc1nc(NC23CC(C#N)(C2)C3)nc2c1[C@H](C)N(c1cn[nH]c1)C2=O` [Example 228, (S,E)-3-((4-(4-(2-cyanovinyl)-2,6-dimethylphenoxy)-5-methyl-7-oxo-6-(1H-pyrazol-4-yl)-6,7-dihydro-5H-pyrrolo[3,4-d]pyrimidin-2-yl)amino)bicyclo[1.1.1]pentane-1-carbonitrile], 72 nM.
Turning to `Cc1cc(/C=C/C#N)cc(C)c1Oc1nc(NC23CC(C#N)(C2)C3)nc2c1C(O)(C(F)F)NC2=O` (centres unmarked) [Example 229, (E)-3-((4-(4-(2-cyanovinyl)-2,6-dimethylphenoxy)-5-(difluoromethyl)-5-hydroxy-7-oxo-6,7-dihydro-5H-pyrrolo[3,4-d]pyrimidin-2-yl)amino)bicyclo[1.1.1]pentane-1-carbonitrile], the EC50 is 123 nM.
Molecule `Cc1cc(/C=C/C#N)cc(C)c1Oc1nc(NC23CC(C#N)(C2)C3)nc2c1C(C)(C)N(c1cnn(C)c1)C2=O` [Example 230, (E)-3-((4-(4-(2-cyanovinyl)-2,6-dimethylphenoxy)-5,5-dimethyl-6-(1-methyl-1H-pyrazol-4-yl)-7-oxo-6,7-dihydro-5H-pyrrolo[3,4-d]pyrimidin-2-yl)amino)bicyclo[1.1.1]pentane-1-carbonitrile] gave an EC50 of 116 nM.
